According to the METLIN SMRT retention time set (Domingo-Almenara et al. 2019):

Test: gradient 5% acetonitrile 3 min, to 50% in 2 min, to 85% in 15 min, held 3 min, 100 µL/min
Settings: column: Zorbax Extend-C18 2.1 x 50 mm; eluents: water / acetonitrile, 0.1% formic acid
Summary of the method: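 Retention times of pure standards were taken from adduct peaks that were selected by computer and manually inspected. Over 3 months, mixtures of ~100 molecules were run by HPLC–quadrupole time-of-flight mass spectrometry in positive and negative ionization mode. The Zorbax Extend-C18 column (2.1 × 50 mm, 1.8 μm) ran at 100 μL/min in water and acetonitrile, each containing 0.1% formic acid, with 40 μL dead volume and 900 μL dwell volume.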

Cc1cc(OCC(=O)NCc2ccccc2Br)nc(N2CCCC2)n1
RP-LC retention time: 640 s

CC(C)n1c(CCNC(=O)c2ccccc2F)nc2cccnc21
RP-LC retention time: 652 s

CCOC(=O)Cn1c(C2CC(=O)N(Cc3ccc(F)cc3)C2)nc2ccccc21 (configuration not stated)
RP-LC retention time: 764 s

CC1CCN(c2cc(-n3cnc(C(=O)N4CCN(c5ncccn5)CC4)c3)ncn2)CC1
RP-LC retention time: 880 s

CCOC(=O)c1c(N2CCOCC2)nc2ccc([N+](=O)[O-])cc2c1-c1ccccc1
RP-LC retention time: 1110 s

Cc1noc(C)c1-c1ccc(S(=O)(=O)Nc2ccccc2)cc1
RP-LC retention time: 912 s

Cc1sc2cc(C(=O)NC3CCCCC3)[nH]c2c1CN1CCOCC1
RP-LC retention time: 671 s

Cc1ccc(CNS(=O)(=O)c2cc3n(c2)CCCNC3=O)o1
RP-LC retention time: 615 s

CCOCCCNC(=O)Cc1c(C)n(C)c2nc(-c3ccccc3)nn2c1=O
RP-LC retention time: 649 s

O=C(c1ccc2[nH]ccc2c1)N1CCN(c2cc(-c3cccs3)[nH]n2)CC1
RP-LC retention time: 708 s

CCOc1ccc(NC(=O)Nc2nccn(-c3ccc(F)cc3)c2=O)cc1
RP-LC retention time: 939 s

CCC(C)N(CC(=O)N1CCc2sccc2C1COc1ccc(F)cc1)C(=O)COC (configuration not stated)
RP-LC retention time: 906 s

Cc1ccc(CNC(=O)C2CCN(CCc3cn(C)c4ncccc34)CC2)cc1
RP-LC retention time: 615 s

O=C(COc1ccc(F)cc1)N1CCC(c2noc(C3CC3)n2)C1 (configuration not stated)
RP-LC retention time: 791 s

COCCSc1nnc(NC(=O)C2CCN(C(=O)c3ccccc3Cl)CC2)s1
RP-LC retention time: 743 s

CCCN(C(=O)Nc1cc(C)cc(C)c1)c1nc(-c2ccc(C3CCCCC3)cc2)cs1
RP-LC retention time: 856 s

CCOCCCNCc1ccc(-c2ccc(Br)cc2)o1
RP-LC retention time: 705 s

Cc1cnc(C2CCC2)n1CCNC(=O)c1cc(C2CC2)[nH]n1
RP-LC retention time: 586 s

Cc1ccc(NC(=O)N2CCCC(Cn3cnc4cccnc43)C2)cc1F (configuration not stated)
RP-LC retention time: 718 s

O=C(C1CCN(c2cnn(Cc3ccccc3)c(=O)c2)CC1)N1CCc2ccccc2C1
RP-LC retention time: 829 s

CC(C)CCNC(=O)c1cn(C)nc1S(=O)(=O)N1CCSCC1
RP-LC retention time: 900 s

O=C(NCc1ccc(F)cc1F)c1ccc2ncnc(N3CCCCC3)c2c1
RP-LC retention time: 680 s

CCCS(=O)(=O)N1C[C@@H](COC)[C@H](c2ccccn2)C1
RP-LC retention time: 619 s

CN(CC1CCOC1)C(=O)Nc1cc(F)cc(F)c1 (configuration not stated)
RP-LC retention time: 744 s

CC(=O)N1CCc2cc(N3CC(C(=O)NCc4ccc(F)cc4Cl)CC3=O)ccc21 (configuration not stated)
RP-LC retention time: 713 s

Cc1cccc(-c2noc(-c3nn(CC(=O)NC4CC4)c4ccccc34)n2)c1
RP-LC retention time: 1040 s

COc1cc2oc3cc(C)oc(=O)c3c2cc1OC
RP-LC retention time: 841 s

O=C(Nc1ccccc1)OC1CCCC(NC(=O)C2(c3ccccc3)CCOCC2)C1 (configuration not stated)
RP-LC retention time: 857 s

Cn1nc(C(=O)N2CCCC(C(=O)Nc3ccccc3)C2)c2c1CCN(C(=O)CC1CCCC1)C2 (configuration not stated)
RP-LC retention time: 800 s

Cc1cc(NC(=O)Nc2ccc3c(ccn3C)c2)sn1
RP-LC retention time: 736 s

CC(=O)CCCCn1cnc2c1c(=O)n(C)c(=O)n2C
RP-LC retention time: 672 s

Nc1nc(F)nc2c1ncn2[C@@H]1O[C@H](COP(=O)(O)O)[C@@H](O)[C@@H]1O
RP-LC retention time: 534 s

O=C(Cc1c(F)cccc1Cl)N1CC(c2nc(-c3ccccc3)no2)C1
RP-LC retention time: 900 s

Cc1cccc(S(=O)(=O)N2CCc3nc(-c4ccccc4)ncc3C2)c1
RP-LC retention time: 1070 s

CCC1CCCCN1C(=O)c1cnc2nc(C)ccc2c1Nc1cccc(C)c1C (configuration not stated)
RP-LC retention time: 720 s

O=C(O)c1nnn(-c2ccccc2)c1-c1ccccn1
RP-LC retention time: 657 s

COc1ccc(C)cc1NC(=O)Cn1nc2cc(C)nc(Nc3ccc(C)cc3)n2c1=O
RP-LC retention time: 1150 s

COc1cn(C)c(C(=O)NCCC(c2ccccc2)c2ccccc2)cc1=O
RP-LC retention time: 667 s

COc1ccc(C2C(C(=O)NCc3ccccn3)c3cc(OC)c(OC)cc3C(=O)N2C)cc1 (configuration not stated)
RP-LC retention time: 609 s

Cc1c(Cl)cccc1NC(=O)C1CCCN(c2nc3ccccc3nc2C(F)(F)F)C1 (configuration not stated)
RP-LC retention time: 1230 s

COCCOCc1nc(C2CCCN2C(=O)c2cccs2)no1 (configuration not stated)
RP-LC retention time: 690 s

CC(C)c1cccc(NC(=O)Cn2nc(N3CCCC3)c3ccccc3c2=O)c1
RP-LC retention time: 1090 s

COc1ccc(CNC(=O)C2CCN(S(C)(=O)=O)c3cc(C)ccc3O2)cc1 (configuration not stated)
RP-LC retention time: 830 s

CC(C)CCNC(=O)c1nnc(-c2ccc(S(=O)(=O)N(C)C)cc2)o1
RP-LC retention time: 877 s

CCCn1c(=O)c(C)nc2cc(-c3noc(-c4ccc(F)cc4)n3)ccc21
RP-LC retention time: 1200 s

CCCN(CC1CCOC1)C(=O)Nc1ccccc1F (configuration not stated)
RP-LC retention time: 728 s

C(#Cc1ccccc1)CN1CCN(c2ccccn2)CC1
RP-LC retention time: 553 s

O=C(NC1CCCCCC1)C1CCN(c2ccncc2)CC1
RP-LC retention time: 610 s

CSc1ccc(-c2nc3cnccn3c2Nc2cccc(C(F)(F)F)c2)cc1
RP-LC retention time: 1020 s

COc1ccc(OC)c(NC(=O)CN2CCc3[nH]c4c(C)c(C)ccc4c(=O)c3C2)c1
RP-LC retention time: 642 s

CCN1c2ccc(F)cc2C(=O)NC12CCN(C(=O)Cc1ccc(C)cc1)CC2
RP-LC retention time: 853 s

O=C(NCc1cscn1)C1CCN(S(=O)(=O)c2cccc3nsnc23)CC1
RP-LC retention time: 659 s

O=C(c1[nH]nc2c1CCc1ccccc1-2)N1CCC(c2noc(-c3cccnc3)n2)C1 (configuration not stated)
RP-LC retention time: 776 s

O=C(NCc1csc(-c2cccs2)n1)C1CCN(S(=O)(=O)c2ccc(Cl)s2)CC1
RP-LC retention time: 957 s

O=C(NCCc1ccccc1)C1CC(=O)N(CCc2c[nH]c3ccc(Cl)cc23)C1 (configuration not stated)
RP-LC retention time: 809 s

CCn1cnc(S(=O)(=O)N2CCCC(C(=O)Nc3ccc(C)cc3)C2)c1 (configuration not stated)
RP-LC retention time: 748 s

CC(C)OCCCNC(=O)CCc1nnc2c3cc(-c4ccc(F)cc4)nn3ccn12
RP-LC retention time: 710 s

COc1ccc(-c2cc3n(n2)CCCN(S(=O)(=O)c2cccc(C#N)c2)C3)cc1OC
RP-LC retention time: 814 s

O=c1n(Cc2cccc(F)c2)nc2c(S(=O)(=O)N3CCN(c4ccc(F)cc4)CC3)cccn12
RP-LC retention time: 967 s

Cc1nc(CCNC(=O)C2CCN(S(=O)(=O)c3ccccc3C(F)(F)F)CC2)cs1
RP-LC retention time: 753 s

COC(=O)C1=CN(c2ccc(F)c(F)c2)c2ccc(F)cc2S1(=O)=O
RP-LC retention time: 854 s

CCN1CCN(C(=O)C2CCCN(S(=O)(=O)c3ccc(OC)c(OC)c3)C2)CC1 (configuration not stated)
RP-LC retention time: 593 s

O=C(Nc1ccc(Cl)cc1)Nc1cccc2nsnc12
RP-LC retention time: 1100 s

CCC(=O)N1CCc2ccc(C(=O)NC3CCCCC3)cc21
RP-LC retention time: 800 s

CCOc1ccc(NC(=O)c2c(C)sc3ncnc(N4CCCC(C)C4)c23)cc1 (configuration not stated)
RP-LC retention time: 1200 s

O=C(NCc1ccc(F)cc1)c1nc(Cn2c(=O)oc3ccc(Cl)cc32)no1
RP-LC retention time: 942 s

Cc1ccc(CN2C[C@@H]3C(=O)N(Cc4ccc5c(c4)OCO5)C(=O)[C@@H]3C2)c(C)c1
RP-LC retention time: 857 s
